Measured values: US20140314857A1, “FORMULATIONS FOR ENHANCED BIOAVAILABILITY OF ZANAMIVIR” (priority 2012, published 2014)

Columns and labels:
Caco-2 cell monolayers = experiment: Unidirectional (A-to-B) permeability of zanamivir across Caco-2 cell monolayers with and without excipients; format: in vitro ADME; settings: vs no enhancer
Protocol: Caco-2 cells were obtained from American Type Culture Collection (Rockville, Md.). Stock cultures were maintained in flasks with DMEM medium supplemented with 10% FBS, 1% non-essential amino acids, 1 mmol/L sodium pyruvate, 100 IU/mL penicillin, and 100 μg/mL streptomycin in a humidified incubator (37° C., 5% CO2). Cells were harvested by trypsinization and seeded at 60,000 cells/cm^2 onto Costar Transwell® 12-well dual-chamber plates with collagen-coated, microporous polycarbonate membranes (1.13 cm^2 insert area, 0.4 μm pore size; Corning Life Sciences, Acton, Mass.) for permeability studies. The culture medium was changed three times per week. […]
Unidirectional (A-to-B) permeability of zanamivir was determined at 15 μg/mL in the absence and presence of varying concentrations of excipients in Caco-2 cell monolayers. […]
Assays were conducted by seeding approximately 68,000 viable Caco-2 cells in 1.12 cm^2 Costar Transwell inserts (12-well format, 0.4 micron pore size PET membranes) in Dulbecco's Modified Eagles Medium (high glucose) supplemented with 20% fetal bovine serum, glutamine, pyruvate, non-essential amino acids, epidermal growth factor, ITS (insulin, transferrin, selenium), and penicillin/streptomycin. […] Transepithelial electrical resistance (TEER) readings were conducted to test the quality of the cell monolayer on the Transwell membrane. […]

[1] = Varying zanamivir levels at fixed 50 µL Capmul MCM L8, intraduodenal administration; format: in vivo, male Sprague-Dawley rats; settings: male, Sprague-Dawley, rat, plasma, ID
Source text: Male Sprague-Dawley rats (Hilltop Labs), 3 animals per treatment group, 250-350 grams in weight, were fitted with a jugular vein cannula (JVC). Animals intended for intraduodenal dosing were also fitted with one or more intraduodenal cannula (IDC) and those intended for intravenous dosing were fitted with a second JVC. Food was withheld from the animals for a minimum of twelve hours prior to test article administration and was returned approximately four hours post-dose. Water was supplied ad libitum.
Intravenous dosing was conducted by the injection of 1.5 mg of zanamivir in 200 μL of PBS through a JVC. For some experiments, the absorption enhancer was administered intraduodenally 2 hr prior to administering 1.5 mg of zanamivir in PBS through a second IDC. Each intraduodenal dose was followed with the introduction of a small air bubble (˜10 μL) in the cannula followed by a flush of 125 μL of PBS to ensure the dose was given in full. The volume of PBS used for cannula flush was consistent across the treatment groups. The cannula was tied to prevent the PBS remaining in the cannula from entering the duodenum.
Blood samples collected via the JVC, approximately 400 μL each, were obtained at 2 min, 5 min, 15 min, 30 min, 60 min, 90 min, and 120 min, with sodium heparin used as an anti-coagulant. Each sample was placed into a chilled tube containing the anticoagulant and kept on ice until centrifugation at 4° C., 3,000×g, for 5 min. The plasma supernatants were stored at −70° C. until LC-MS analysis.

With `CC(=O)NC1C(NC(=N)N)C=C(C(=O)O)OC1C(O)C(O)CO` (centres unmarked) [Zanamivir, 5-acetamido-4-guanidino-6-(1,2,3-trihydroxypropyl)-5,6-dihydro-4H-pyran-2-carboxylic acid] the “increase in apparent permeability coefficient (Papp)” value (Caco-2 cell monolayers; optimized concentration of Capmul MCM L8 (0.25%)) was over 5 fold, the “increase in apparent permeability coefficient (Papp)” value (Caco-2 cell monolayers; optimized concentration of glycerol (5%)) was over 5 fold and the Tmax ([1]; 0.75 mg zanamivir in 50 µL Capmul MCM L8) was 4.8 min. It also gave a Tmax ([1]; 1.5 mg zanamivir in 50 µL Capmul MCM L8) of 4.8 min and a Tmax ([1]; 3.0 mg zanamivir in 50 µL Capmul MCM L8) of 8.4 min.
